One data set concerns U251HF-GFP xenograft. The data set can be described thus: Orthotopic intracranial zebrafish glioma xenograft. To be noted: TMZ 10 μM, onalespib 0.5 μM in fish water, 5-10 dpt.
The test system of another data set is GSC811 xenograft. The data set is described as follows: Patient-derived GSC811 intracranial xenograft in mice. It counts as in vivo, mouse. To be noted: TMZ 4 mg/kg oral daily x5, onalespib 30 mg/kg iv day 16 and 19; vs vehicle.
The subject of the next data set is GSC20 (MES). The data set can be described thus: WST-1 viability assay in glioma stem cells. In kind it is cell-based, human. The note with it: GSC20, highest concentrations of onalespib. In general terms: Tetrazolium dyes change colour on reduction, which living cells bring about.
The subject of a further data set is EGFR signaling pathway. The data set is described as follows: Immunoblot of EGFR-AKT-ERK-S6 signaling in glioma cell lines. In kind it is cell-based, human. In general terms: A western blot detects proteins with antibodies after separation by electrophoresis.
For another data set, the system named is U251HF cells. The data set is described as follows: WST-1 proliferation assay. It counts as cell-based. The note with it: Homo sapiens, 72 h, read-out: IC50, proliferation (WST assay).
The test system of the next data set is A172 cells. The data set is described as follows: WST-1 proliferation assay. The note with it: Homo sapiens, A 172, 72 h, read-out: IC50, proliferation (WST assay). In kind it is cell-based.
Another data set concerns GSC23 (PN). The data set is described as follows: WST-1 viability assay in glioma stem cells. It counts as cell-based, human. To be noted: GSC23, highest concentrations of onalespib.
The subject of data set [1] is HSP90. The data set is described as follows: HSP70 immunoblot as biomarker of HSP90 inhibition in glioma cell lines. In kind it is cell-based, human. To be noted: LN229, U251HF, A172; 0.1, 0.2, 0.4 μM, 48 h.
In another data set the test system is GSC11 (PN). The data set can be described thus: WST-1 viability assay in glioma stem cells. In kind it is cell-based, human. The note with it: GSC11, highest concentrations of onalespib.
Another data set relates to GSC2 (MES). The data set is described as follows: WST-1 viability assay in glioma stem cells. In kind it is cell-based, human. To be noted: GSC2, highest concentrations of onalespib.
For the next data set, the system named is EGFRvIII. The data set can be described thus: Immunoblot in U87 cells expressing mutant EGFRvIII. In kind it is cell-based, human. To be noted: 0.1, 0.2, 0.4 μM.
A further data set relates to GSC lines. The data set can be described thus: Transwell migration. It counts as cell-based, human.
For data set [2], the system named is LN229, U251HF and A172 cells. The data set is described as follows: Apoptosis: annexin V/PI flow cytometry and caspase-3/7 activation. It counts as cell-based, human. (In flow cytometry, cells or beads pass a laser one at a time.)
Another data set has as its system LN229 cells. The data set can be described thus: WST-1 proliferation assay. It counts as cell-based. To be noted: Homo sapiens, LN-229, 72 h, read-out: IC50, proliferation (WST assay).
For data set [3], the system named is endothelial cells exposed to conditioned medium of LN229, U251HF and A172 cells. In kind it is cell-based. The note with it: 0.4 μM for 24 h.
The test system of a further data set is CD133, Nestin, Olig2. The data set can be described thus: Stem cell marker expression in GSC11 and GSC23. It counts as cell-based, human.
Data set [4] has as its system U251HF, LN229 and A172 cells. The data set is described as follows: Wound healing. In kind it is cell-based, human. The note with it: 0.4 μM, 24 h, vs untreated controls.
A short description of data set [5]: Brain and plasma pharmacokinetics by LC-MS/MS after iv bolus. In kind it is in vivo, mouse. To be noted: 30 mg/kg iv single dose.
The subject of data set [6] is HSP90 / EGFR pathway in GSC11 and GSC23. The data set can be described thus: Immunoblot of HSP70 and EGFR pathway in GSC11 and GSC23 neurospheres. It counts as cell-based, human. The note with it: GSC11 and GSC23, 48 h.
The subject of data set [7] is HSP90. The data set is described as follows: HSP70 immunohistochemistry of brain tissue as marker of HSP90 inhibition in vivo. Also on record: species or system mouse. To be noted: 30 mg/kg iv, 0-24 h, vs vehicle treated mice.
A further data set deals with p-STAT3. The data set is described as follows: p-STAT3 immunoblot in MES and PN GSC lines. It counts as cell-based, human. To be noted: 48 h.
Data set [8] deals with LN229, U251HF and A172 cells. The data set is described as follows: Colony forming assay. It counts as cell-based, human. The note with it: 0.4 μM for 24 h, colonies after 10 days.

Here are results for two molecules from paper PMC5986078 (Clinical cancer research : an official journal of the …, 2017).

For the molecule `Cn1nnc2c(C(N)=O)ncn2c1=O` [TMZ, temozolomide], the tumor burden entry in the data set on U251HF-GFP xenograft is given as “moderate reductions”. Also, the survival result in the data set with GSC811 xenograft was “did not extend survival”.
Turning to `CC(C)c1cc(C(=O)N2Cc3ccc(CN4CCN(C)CC4)cc3C2)c(O)cc1O` [onalespib, (2,4-dihydroxy-5-isopropylphenyl)-[5-(4-methylpiperazin-1-ylmethyl)-1,3-dihydroisoindol-2-yl]methanone], the “viability (lost to)” value with GSC20 (MES) and in the data set with GSC2 (MES) was 50% each time. In addition, in the data set with EGFR signaling pathway (0.4 μM, up to 24 h), the “EGFR level, time course” value was “time-dependent decline”. Besides, in the data set on EGFR signaling pathway (U251HF, LN229, A172, 0.1-0.4 μM, 48 h), the “levels of EGFR, p-EGFR, phospho- and total AKT, ERK1/2 and S6” value was “robust dose-dependent decrease”. Moreover, the survival result in the data set on U251HF-GFP xenograft is given as “extended survival”; in the data set on GSC811 xenograft, “did not extend survival”. In addition, the tumor burden entry with U251HF-GFP xenograft is “moderate reductions”. In addition, the IC50 in the data set with U251HF cells, in the data set with A172 cells and with LN229 cells was ≤ 250 nM each time. Besides, the loss of viability in the data set on GSC23 (PN) is 50%; in the data set on GSC11 (PN), “over 90%”. The “HSP70 levels (marker of HSP90 inhibition)” value in the data set on HSP90 [1] is listed as “increase in HSP70 levels in cells in a dose-dependent manner”. In addition, in the data set with EGFRvIII, the “depletion of mutant EGFRvIII and downstream intermediates” value is recorded as “equally effective”. The “invasive ability, transwell migration” value with GSC lines is reported as “markedly decreased”. The “activation of caspase-3 and caspase-7” value in data set [2] (increasing concentrations of onalespib) is “dose-dependent activation”. Further, in data set [2] (increasing concentrations, 48 h), the “percentage of annexin positive cells” value is listed as “increase”. Moreover, in data set [3], the “number of microtubules formed by endothelial cells in response to CM” value is “strongly inhibited”. For the same molecule, the “expression of stem cell markers CD133 and Nestin” value in the data set with CD133, Nestin, Olig2 was “dose-dependent decrease”. In data set [4], the “cell migration, wound healing” value is reported as “reduced ability to migrate”. The “brain Cmax relative to plasma Cmax (fold lower)” value in data set [5] is reported as 4.7 fold. For the same molecule, in data set [5], the “overall brain exposure versus plasma” value is given as “greater than of plasma”. The “onalespib level in brain tissue versus plasma” value in [5] (each time point from 2 h up to 24 h) is “higher in brain tissue compared to the plasma”. Moreover, the “HSP70 levels in GSC” value in [6] is reported as “characteristic increase”. The “levels of total EGFR, pEGFR in GSC” value in data set [6] is reported as “steep declines”. Moreover, the “percentage and intensity of HSP70 pixels in brain tissue” value with HSP90 [7] was “increase”. Further, the p-STAT3 result with p-STAT3 is reported as “inhibited”. Further, the “colony formation (proliferative capacity)” value in data set [8] is on record as “significantly inhibited”.
